Data: the NIST ThermoML archive (doi:10.1021/je800463k)

Experiment: mn = molality of the nth substance listed, in mol/kg
Details: 101 kPa, Liquid; for electrical conductivity: Frequency=0.001 MHz, Alternating current cell with electrodes; for speed of sound: Frequency=2 MHz; for mass density: Pycnometric method

CC(=O)[O-].CC(=O)[O-].[Mg+2] [magnesium acetate] + CO
Details | electrical conductivity [S/m] | mass density [kg/m3] | speed of sound [m/s] | viscosity [mPa·s]
288.15 K, m1 = 0.0059 | – | – | 1135.7 | –
288.15 K, m1 = 0.0093 | – | – | 1136.1 | –
288.15 K, m1 = 0.014 | – | – | – | 0.6458
288.15 K, m1 = 0.018 | – | – | 1137.4 | 0.6478
288.15 K, m1 = 0.0339 | – | – | – | 0.6606
288.15 K, m1 = 0.053 | 0.0969 | – | 1138.1 | –
288.15 K, m1 = 0.0646 | 0.1033 | – | – | 0.6743
288.15 K, m1 = 0.0855 | 0.1114 | – | 1139.7 | –
288.15 K, m1 = 0.1012 | – | – | – | 0.7063
288.15 K, m1 = 0.1024 | 0.1227 | – | 1142.7 | –
288.15 K, m1 = 0.13 | – | – | – | 0.7206
288.15 K, m1 = 0.1402 | 0.139 | – | 1144.3 | 0.7286
288.15 K, m1 = 0.1455 | 0.1428 | – | 1141.6 | –
288.15 K, m1 = 0.17 | – | – | – | 0.7465
288.15 K, m1 = 0.1837 | 0.1496 | – | 1143.8 | –
288.15 K, m1 = 0.2003 | – | – | – | 0.7639
288.15 K, m1 = 0.2192 | – | – | 1147.5 | –
288.15 K, m1 = 0.2422 | 0.1673 | – | 1146.4 | 0.7865
288.15 K, m1 = 0.2453 | – | – | – | 0.7929
288.15 K, m1 = 0.2889 | 0.1692 | – | 1147 | 0.8205
288.15 K, m1 = 0.3042 | – | – | 1149.4 | –
293.15 K, m1 = 0.0059 | 0.0349 | – | 1119 | –
293.15 K, m1 = 0.0093 | 0.0575 | – | 1118.9 | –
293.15 K, m1 = 0.014 | – | – | – | 0.6
293.15 K, m1 = 0.018 | 0.0649 | – | 1120.9 | 0.6022
293.15 K, m1 = 0.0339 | 0.0843 | – | – | 0.6132
293.15 K, m1 = 0.053 | 0.0985 | – | 1121.1 | –
293.15 K, m1 = 0.0646 | 0.1055 | – | – | 0.6249
293.15 K, m1 = 0.0855 | 0.1149 | – | 1122.8 | –
293.15 K, m1 = 0.1012 | – | – | – | 0.6535
293.15 K, m1 = 0.1024 | 0.1258 | – | 1126 | –
293.15 K, m1 = 0.13 | – | – | – | 0.666
293.15 K, m1 = 0.1402 | 0.1426 | – | 1128.4 | 0.6731
293.15 K, m1 = 0.1455 | 0.1463 | – | 1124.4 | –
293.15 K, m1 = 0.17 | – | – | – | 0.6902
293.15 K, m1 = 0.1837 | 0.1536 | – | 1127.3 | –
293.15 K, m1 = 0.2003 | – | – | – | 0.7039
293.15 K, m1 = 0.2192 | – | – | 1130.4 | –
293.15 K, m1 = 0.2422 | 0.1693 | – | 1129.6 | 0.7255
293.15 K, m1 = 0.2453 | – | – | – | 0.7305
293.15 K, m1 = 0.2889 | 0.1735 | – | 1131.7 | 0.7548
293.15 K, m1 = 0.3042 | – | – | 1132.6 | –
296.65 K, m1 = 0.1112 | – | 798.51 | – | –
297.55 K, m1 = 0.2192 | – | 803.53 | – | –
298.15 K, m1 = 0.0059 | 0.0355 | – | 1102.5 | –
298.15 K, m1 = 0.0093 | 0.058 | – | 1102 | –
298.15 K, m1 = 0.014 | – | – | – | 0.5583
298.15 K, m1 = 0.018 | 0.0656 | – | 1103.5 | 0.5605
298.15 K, m1 = 0.0339 | 0.0856 | – | – | 0.5703
298.15 K, m1 = 0.053 | 0.1 | – | 1104.6 | –
298.15 K, m1 = 0.0646 | 0.108 | – | – | 0.5802
298.15 K, m1 = 0.0855 | 0.1183 | – | 1106.7 | –
298.15 K, m1 = 0.1012 | – | – | – | 0.6059
298.15 K, m1 = 0.1024 | 0.1284 | – | 1109.8 | –
298.15 K, m1 = 0.13 | – | – | – | 0.617
298.15 K, m1 = 0.1402 | 0.1458 | – | 1111.6 | 0.6234
298.15 K, m1 = 0.1455 | 0.1485 | – | 1108.4 | –
298.15 K, m1 = 0.17 | – | – | – | 0.6396
298.15 K, m1 = 0.1837 | 0.1578 | – | 1110.9 | –
298.15 K, m1 = 0.2003 | – | – | – | 0.6529
298.15 K, m1 = 0.2192 | – | – | 1113.4 | –
298.15 K, m1 = 0.2422 | 0.1717 | – | 1112.7 | 0.6701
298.15 K, m1 = 0.2453 | – | – | – | 0.6746
298.15 K, m1 = 0.2889 | 0.1776 | – | 1115.2 | 0.6956
298.15 K, m1 = 0.3042 | – | – | 1116.1 | –
298.5 K, m1 = 0.0646 | – | 793.38 | – | –
299 K, m1 = 0.0339 | – | 790.63 | – | –
299.1 K, m1 = 0.014 | – | 788.94 | – | –
299.25 K, m1 = 0.1798 | – | 800.6 | – | –
299.3 K, m1 = 0.2192 | – | 801.81 | – | –
299.35 K, m1 = 0.1112 | – | 795.95 | – | –
